Values of other authors, collected in patent US20040019101A1, “Methods of treating gastrointestinary and genitourinary pain disorders” (priority 2002, published 2004).

Key:
[1] = test system: monoamine neurotransmitter uptake
dopamine reuptake = conditions: compared with serotonin and norepinephrine uptake
histaminergic receptors = conditions: in vitro
adrenergic receptors = conditions: in vitro
irritable bowel syndrome = conditions: in vivo
orocecal transit = conditions: healthy subjects or IBS patients

In the case of `COc1ccc(C(CN(C)C)C2(O)CCCCC2)cc1` (centres unmarked) [venlafaxine, 1-[2-(dimethylamino)-1-(4-methoxyphenyl)ethyl] cyclohexanol], the “inhibition of monoamine neurotransmitter uptake” value [1] is listed as “potent inhibitors”, the “inhibition of norepinephrine uptake” value (norepinephrine uptake) is listed as “potent inhibition” and the “inhibition of dopamine reuptake” value (dopamine reuptake) is listed as “To a lesser degree”. For the same molecule, the “inhibitory activity on monoamine oxidase” value (monoamine oxidase) was “no inhibitory activity”, the “affinity for histaminergic receptors” value (histaminergic receptors) was “virtually no affinity” and the “affinity for adrenergic receptors” value (adrenergic receptors) was “virtually no affinity”.

In the case of `CN(C)CCC=C1c2ccccc2COc2ccccc21` [doxepin], the “efficacy in treatment of irritable bowel syndrome” value (shortened to “efficacy in treatment”) (irritable bowel syndrome) is given as “efficacious”.

In the case of `CN(C)CC(c1ccc(O)cc1)C1(O)CCCCC1` (centres unmarked) [O-desmethyl venlafaxine, 1-[(2-dimethylamino)-1-(4-hydoxyphenyl)ethyl]cyclohexanol], the “inhibition of monoamine neurotransmitter uptake” value [1] is given as “potent inhibitors”.

In the case of `CN(C)CCCN1c2ccccc2CCc2ccccc21` [imipramine], the “efficacy in treatment” value (irritable bowel syndrome) is given as “efficacious” and the “effect on orocecal transit” value (orocecal transit) is given as “prolong orocecal transit”.

For `CN(C)CCC=C1c2ccccc2CCc2ccccc21` [amytriptiline], the “efficacy in treatment” value (irritable bowel syndrome) is given as “efficacious”.
